# Laboratory results: patent US20150064763A1, “Method for Producing Hydrocarbons and Oxygen-containing Compounds from Biomass” (SWEDISH BIOFUELS AB, priority 2003, published 2015)
# Test system: formation of C3-C5 alcohols
# Assay: Inhibition of C3-C5 alcohols formation in alcohol fermentation by yeast
# Format: cell-based
# Conditions: for effect on formation of C3-C5 alcohols: present in the substrate in addition to valine, leucine and isoleucine; for inhibition constant: formation of C3-C5 alcohols in alcohol fermentation
# Experimental: Formation of C3-C5 alcohols is a result of active functioning of the process of deamination of amino acids in the yeast cells with formation of free ammonia. […] The yield of C3-C5 alcohols reached 3.1% of ethanol when pure valine, isoleucine, and leucine were the sole source of nitrogen nutrition of the yeast in the inventive fermentation process. Moreover, the maximum formation of C3-C5 alcohols in the inventive process of alcohol fermentation occurred at pH=6.0 of the medium and at 38° C. (standard conditions of alcohol fermentation pH 4.5-5.5; temperature 28-34° C.).
# [1] = system with leucine as amino acid
SMILES,effect on formation of C3-C5 alcohols,inhibition constant [1] [mg/L],inhibition constant (system with valine as amino acid) [mg/L]
N [ammonium ions],inhibits formation of C3-C5 alcohols,–,–
N.N.O=S(=O)(O)O [ammonium sulphate],–,750,–
NC(=O)C[C@H](N)C(=O)O [asparagine],inhibits formation of C3-C5 alcohols,730,650
